According to patent US20040248984A1, “Use of $g(b)-adrenoceptor agonists for the treatment of neurodegenerative diseases” (priority 2001, published 2004):

System: Primary cultures of astrocytes
Assay: Activation of astrocytes (morphological change in primary astrocyte cultures)
Type: cell-based, Fischer 344 rats
Conditions: 6 hours after start of treatment, serum-free medium, microscope 200× magnification, versus polygonal flat control cells (FIG. 1/7)
Method: 1) Activation of Astrocytes
Primary cultures of astrocytes were obtained from the cerebral cortical tissue of newborn Fischer 344 rats within 24 hours after birth. The brains were dissected out of the vault of the cranium under sterile conditions, the cortical tissue (cortex) was isolated, and the cells were dissociated through a narrow-mesh wire netting. The cells were put into cell culture bottles and cultivated in serum-containing DMEM solution (contained fetal calf serum and a penicillin/streptomycin mixture) until the cells were confluent. Oligodendrocytes and microglia were removed by washing with cold buffer solution. The confluent astrocytes were then detached from the base of the culture bottles with a trypsin solution and seeded in a density of 20 000 cells/cm2 in Petri dishes on coverslips and cultivated in serum-containing medium until the cells were again confluent. Two days after confluence, the medium was replaced by serum-free medium and, after 24 hours, the medium was replaced again, likewise by serum-free medium. Twenty-four hours after the second replacement of medium, salmeterol was added. Six hours after the treatment, the astrocytes were photographed under the microscope with 200× magnification to document the morphological changes (FIG. 1/7).

Structure (SMILES): OCc1cc(C(O)CNCCCCCCOCCCCc2ccccc2)ccc1O (stereo not shown) [salmeterol]
- morphological changes of astrocytes (activation): activated, stellate and refractile astrocytes
